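In this assay, cells in 96-well plates receive the compound at five concentrations for 48 hours. Endpoints are linearly interpolated between the surrounding concentrations. At the GI50, growth is halved. TGI: concentration producing complete growth inhibition.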
Legend:
Assay in all cases: NCI anticancer screen, dose series, 48 h
[1] = system: 786-0 renal
[2] = system: A498 renal
[3] = system: A549 NSCLC
[4] = system: ACHN renal
[5] = system: BT-549 breast
[6] = system: CAKI-1 renal
[7] = system: CCRF-CEM leukemia
[8] = system: COLO 205 colon
[9] = system: DU-145 prostate
[10] = system: EKVX NSCLC
[11] = system: HCC-2998 colon
[12] = system: HCT-116 colon
[13] = system: HCT-15 colon
[14] = system: HL-60(TB) leukemia
[15] = system: HOP-62 NSCLC
[16] = system: HOP-92 NSCLC
[17] = system: HS 578T breast
[18] = system: HT29 colon
[19] = system: IGROV1 ovarian
[20] = system: K-562 leukemia
[21] = system: KM12 colon
[22] = system: LOX IMVI melanoma
[23] = system: M14 melanoma
[24] = system: MALME-3M melanoma
[25] = system: MCF7 breast
[26] = system: MDA-MB-231 breast
[27] = system: MDA-MB-435
[28] = system: MDA-MB-468 breast
[29] = system: MOLT-4 leukemia
[30] = system: NCI-H226 lung
[31] = system: NCI-H23 lung
[32] = system: NCI-H460 lung
[33] = system: NCI-H522 lung
[34] = system: NCI/ADR-RES ovarian
[35] = system: OVCAR-3 ovarian
[36] = system: OVCAR-4 ovarian
[37] = system: OVCAR-5 ovarian
[38] = system: OVCAR-8 ovarian
[39] = system: PC-3 prostate
[40] = system: RPMI-8226 leukemia
[41] = system: RXF 393 renal
[42] = system: SF-268 CNS
[43] = system: SF-295 CNS
[44] = system: SF-539 CNS
[45] = system: SK-MEL-2 melanoma
[46] = system: SK-MEL-28 melanoma
[47] = system: SK-MEL-5 melanoma
[48] = system: SK-OV-3 ovarian
[49] = system: SN12C renal
[50] = system: SNB-19 CNS
[51] = system: SNB-75 CNS
[52] = system: SR leukemia
[53] = system: SW-620 colon
[54] = system: T-47D breast
[55] = system: TK-10 renal
[56] = system: U251 CNS
[57] = system: UACC-257 melanoma
[58] = system: UACC-62 melanoma
[59] = system: UO-31 renal

With `COc1cc(-c2nc3cc(Cl)c(Cl)cc3[nH]2)ccc1OCc1nnc(-c2ccc(Br)cc2)o1` as the compound, how does the GI50 [1] read?
The GI50 was 3.55 µM.

What about the TGI [1] of the same compound?
The TGI was 13.1 µM.

What about the GI50 [2] of the same compound?
Its GI50 is 2.9 µM.

And the TGI [2]?
Its TGI is 9.17 µM.

What about the GI50 [3] of the same compound?
The GI50 was 7.14 µM.

What about the TGI [3] of the same compound?
Its TGI is greater than 100 µM.

And the GI50 [4]?
Its GI50 is 2.19 µM.

What about the TGI [4] of the same compound?
The TGI was 4.99 µM.

What about the GI50 [5] of the same compound?
The GI50 was 3.2 µM.

And the TGI [5]?
Its TGI is 7.74 µM.

And the GI50 [6]?
Its GI50 is 13 µM.

And the TGI [6]?
Its TGI is 28.3 µM.

What about the GI50 [7] of the same compound?
Its GI50 is 6.07 µM.

And the TGI [7]?
Its TGI is greater than 100 µM.

What about the GI50 [8] of the same compound?
Its GI50 is 24.6 µM.

And the TGI [8]?
The TGI was greater than 100 µM.

What about the GI50 [9] of the same compound?
The GI50 was 10.1 µM.

And the TGI [9]?
Its TGI is greater than 100 µM.

And the GI50 [10]?
Its GI50 is 13.3 µM.

And the TGI [10]?
Its TGI is greater than 100 µM.

What about the GI50 [11] of the same compound?
The GI50 was 29.2 µM.

What about the TGI [11] of the same compound?
The TGI was greater than 100 µM.

What about the GI50 [12] of the same compound?
The GI50 was 4.43 µM.

What about the TGI [12] of the same compound?
The TGI was 31.7 µM.

And the GI50 [13]?
The GI50 was 2.53 µM.

What about the TGI [13] of the same compound?
Its TGI is 7.36 µM.

And the GI50 [14]?
The GI50 was 2.61 µM.

What about the TGI [14] of the same compound?
The TGI was 7.52 µM.

What about the GI50 [15] of the same compound?
The GI50 was 4.17 µM.

And the TGI [15]?
The TGI was 17.8 µM.

What about the GI50 [16] of the same compound?
The GI50 was 2.35 µM.

What about the TGI [16] of the same compound?
Its TGI is 7.81 µM.

And the GI50 [17]?
Its GI50 is 2.72 µM.

What about the TGI [17] of the same compound?
The TGI was 8.27 µM.

What about the GI50 [18] of the same compound?
Its GI50 is 3.61 µM.

And the TGI [18]?
Its TGI is greater than 100 µM.

And the GI50 [19]?
The GI50 was 11.5 µM.

What about the TGI [19] of the same compound?
Its TGI is greater than 100 µM.

What about the GI50 [20] of the same compound?
Its GI50 is 4.8 µM.

And the TGI [20]?
Its TGI is greater than 100 µM.

What about the GI50 [21] of the same compound?
Its GI50 is 52 µM.

And the TGI [21]?
Its TGI is greater than 100 µM.

And the GI50 [22]?
Its GI50 is 2.93 µM.

What about the TGI [22] of the same compound?
The TGI was 10.8 µM.

And the GI50 [23]?
Its GI50 is 6.68 µM.

And the TGI [23]?
The TGI was 25.3 µM.

And the GI50 [24]?
The GI50 was 3.25 µM.

And the TGI [24]?
The TGI was 16.4 µM.

What about the GI50 [25] of the same compound?
The GI50 was 3.28 µM.

What about the TGI [25] of the same compound?
Its TGI is 27.5 µM.

And the GI50 [26]?
The GI50 was 2.22 µM.

What about the TGI [26] of the same compound?
The TGI was 5.3 µM.

And the GI50 [27]?
The GI50 was 3.97 µM.

And the TGI [27]?
Its TGI is 20 µM.

And the GI50 [28]?
The GI50 was 5.98 µM.

And the TGI [28]?
The TGI was 28.4 µM.

What about the GI50 [29] of the same compound?
Its GI50 is 3.72 µM.

What about the TGI [29] of the same compound?
Its TGI is greater than 100 µM.

What about the GI50 [30] of the same compound?
The GI50 was 1.82 µM.

What about the TGI [30] of the same compound?
The TGI was 4.81 µM.

And the GI50 [31]?
Its GI50 is 4.99 µM.

What about the TGI [31] of the same compound?
Its TGI is greater than 100 µM.

What about the GI50 [32] of the same compound?
The GI50 was 6.43 µM.

What about the TGI [32] of the same compound?
Its TGI is greater than 100 µM.

And the GI50 [33]?
The GI50 was 4.53 µM.

And the TGI [33]?
Its TGI is greater than 100 µM.

And the GI50 [34]?
Its GI50 is 3.42 µM.

And the TGI [34]?
The TGI was greater than 100 µM.

And the GI50 [35]?
Its GI50 is 3.33 µM.

And the TGI [35]?
The TGI was 10.9 µM.

What about the GI50 [36] of the same compound?
The GI50 was 1.92 µM.

What about the TGI [36] of the same compound?
The TGI was 4.12 µM.

And the GI50 [37]?
Its GI50 is 5.59 µM.

What about the TGI [37] of the same compound?
Its TGI is greater than 100 µM.

What about the GI50 [38] of the same compound?
Its GI50 is 2.85 µM.

And the TGI [38]?
The TGI was 7.78 µM.

What about the GI50 [39] of the same compound?
The GI50 was 4.27 µM.

And the TGI [39]?
Its TGI is greater than 100 µM.

And the GI50 [40]?
The GI50 was 2.68 µM.

And the TGI [40]?
Its TGI is 8.25 µM.

And the GI50 [41]?
Its GI50 is 1.87 µM.

What about the TGI [41] of the same compound?
The TGI was 4.61 µM.

What about the GI50 [42] of the same compound?
The GI50 was 6.22 µM.

And the TGI [42]?
The TGI was greater than 100 µM.

What about the GI50 [43] of the same compound?
Its GI50 is 3.13 µM.

And the TGI [43]?
Its TGI is 10.7 µM.

And the GI50 [44]?
Its GI50 is 1.81 µM.

And the TGI [44]?
Its TGI is 3.51 µM.

And the GI50 [45]?
The GI50 was 15.7 µM.

And the TGI [45]?
The TGI was 35 µM.

What about the GI50 [46] of the same compound?
Its GI50 is 3.59 µM.

What about the TGI [46] of the same compound?
The TGI was 19 µM.

What about the GI50 [47] of the same compound?
Its GI50 is 3.16 µM.

And the TGI [47]?
Its TGI is 13.2 µM.

And the GI50 [48]?
Its GI50 is 11.5 µM.

And the TGI [48]?
Its TGI is 38.3 µM.

What about the GI50 [49] of the same compound?
The GI50 was 2.56 µM.

And the TGI [49]?
The TGI was 7.33 µM.

And the GI50 [50]?
Its GI50 is 14.7 µM.

And the TGI [50]?
The TGI was greater than 100 µM.

What about the GI50 [51] of the same compound?
The GI50 was 1.56 µM.

And the TGI [51]?
Its TGI is 3.87 µM.

And the GI50 [52]?
The GI50 was 2.21 µM.

What about the TGI [52] of the same compound?
Its TGI is 5.9 µM.

What about the GI50 [53] of the same compound?
The GI50 was 5.07 µM.

What about the TGI [53] of the same compound?
Its TGI is greater than 100 µM.

What about the GI50 [54] of the same compound?
Its GI50 is 2.06 µM.

And the TGI [54]?
Its TGI is 4.95 µM.

What about the GI50 [55] of the same compound?
The GI50 was 4.37 µM.

And the TGI [55]?
Its TGI is 17.5 µM.

What about the GI50 [56] of the same compound?
The GI50 was 3.82 µM.

And the TGI [56]?
The TGI was 20 µM.

And the GI50 [57]?
Its GI50 is 11.7 µM.

What about the TGI [57] of the same compound?
The TGI was 35.6 µM.

And the GI50 [58]?
The GI50 was 3.05 µM.

And the TGI [58]?
The TGI was 13.5 µM.

And the GI50 [59]?
Its GI50 is 1.89 µM.

What about the TGI [59] of the same compound?
Its TGI is 4.61 µM.

From PubChem BioAssay (NCI)
